From patent publication US20260242365A1, “USES OF CERTAIN 1,4-OXAZEPANE-2-CARBOXAMIDES AS DPP1 INHIBITORS” (Insmed Incorporated, priority 2023, published 2026) come the findings set out here.

Structures are written as SMILES.

One experiment concerns the target T1, DPP1 in HL-60 cells (Homo sapiens, UniProt P53634).
T1 construct: HL-60 cells (ATCC; host or cells: HL-60
The experiment in a line: DPP1 Cell IC50 Assay. The note with it: H-Gly-Phe-AFC substrate. Format: cell-based. As to the method: HL-60 cells (ATCC; Manassas, VA) were maintained in RPMI-1640 supplemented with 20% heat-inactivated FBS and 1X Antibiotic Antimycotic (Cytiva; Marlborough, MA). Media was changed every three to four days and cells were not allowed to exceed 1×10^6 cells per mL. Prior to assay, cells were collected by centrifugation at 500 rcf for 3 minutes, resuspended in RPMI and counted. Cells were diluted in RPMI to a concentration of 5×10^5 live cells per mL and transferred to black 96-well plates for assay, 60 μL per well. Test articles were diluted in RPMI plus 0.5% DMSO, and 20 μL was added to each assay well. Compound was allowed to pre-incubate with cells with gentle shaking at 100 rpm for 60 minutes at 37° C. in a cell culture incubator maintained at 5% CO2, after which 20 μL of 500 μM H-Gly-Phe-AFC substrate (MP Biomedicals; Solon, OH) in RPMI was added to each well. Plates were returned to the incubator with shaking at 100 rpm for 30 minutes, after which fluorescence was measured at Excitation/Emission 400/505 nm. Percent (%) Inhibition was calculated from RFU values compared to control cell wells that received only RPMI plus 0.5% DMSO. IC50 values for each compound were calculated via the XLFit (IDBS Version 5.3.1.3) Add-On to Microsoft Excel using the four parameter fit equation y=(A+ ((B−A)/(1+ ((C/x)^D)))), which appears as equation number 205 (4 Parameter Logistic Model or Sigmoidal Dose-Response Model) in XLFit.

A further experiment concerns the target T2, mouse DPP1 (Mus musculus, UniProt P97821).
T2 construct: Test articles were applied to active mouse DPP1 enzyme; purchased R&D Systems
Description: Mouse DPP1 Enzyme IC50 Assay. Format: biochemical. The note with it: active mouse DPP1 enzyme, H-Gly-Arg-AMC substrate. As for the experimental part: Test articles were applied to active mouse DPP1 enzyme (R&D Systems; Minneapolis, MN) in Assay Buffer (50 mM MES pH 5.5, 50 mM NaCl, 5 mM DTT) in a total reaction volume of 125 μL. 25 μL of compound in Assay Buffer plus 5% DMSO was first added to 50 μL of active mouse DPP1 enzyme at a concentration of […] and allowed to pre-incubate for 10 minutes at 37° C. after which 50 μL of 1000 μM H-Gly-Arg-AMC substrate (Bachem; St. Torrance, CA) was added, giving final substrate concentration of 400 μM and a final DMSO concentration of 1%. Substrate cleavage was measured for 90 minutes at 37° C., with fluorescence at Excitation/Emission 350/450 nm measured every 5 minutes. DPP1 concentration was interpolated based on its activity relative to a standard curve of recombinant active mouse DPP1 enzyme. IC50 values for each compound were calculated via the XLFit (IDBS Version 5.3.1.3) Add-On to Microsoft Excel using the four parameter fit equation y= (A+ ((B−A)/(1+ ((C/x)^D)))), which appears as equation number 205 (4 Parameter Logistic Model or Sigmoidal Dose-Response Model) in XLFit. Default constraints were used for each Parameter. IC50 was defined as the compound concentration at which 50% of enzyme activity was inhibited when compared to the no-compound control.

T2 sequence (P97821 25-134 limits assumed): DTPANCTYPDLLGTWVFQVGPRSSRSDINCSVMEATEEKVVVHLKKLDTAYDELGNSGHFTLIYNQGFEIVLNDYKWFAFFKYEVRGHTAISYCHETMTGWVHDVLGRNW
T2 sequence (P97821 231-393 limits assumed): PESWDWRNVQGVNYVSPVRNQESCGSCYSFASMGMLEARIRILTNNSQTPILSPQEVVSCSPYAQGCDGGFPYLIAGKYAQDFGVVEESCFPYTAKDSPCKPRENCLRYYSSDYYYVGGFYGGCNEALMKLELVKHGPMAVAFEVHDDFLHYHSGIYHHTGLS
T2 sequence (P97821 394-462 limits assumed): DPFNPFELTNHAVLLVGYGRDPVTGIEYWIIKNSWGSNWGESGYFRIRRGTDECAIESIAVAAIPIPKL
T1 sequence (P53634 25-463): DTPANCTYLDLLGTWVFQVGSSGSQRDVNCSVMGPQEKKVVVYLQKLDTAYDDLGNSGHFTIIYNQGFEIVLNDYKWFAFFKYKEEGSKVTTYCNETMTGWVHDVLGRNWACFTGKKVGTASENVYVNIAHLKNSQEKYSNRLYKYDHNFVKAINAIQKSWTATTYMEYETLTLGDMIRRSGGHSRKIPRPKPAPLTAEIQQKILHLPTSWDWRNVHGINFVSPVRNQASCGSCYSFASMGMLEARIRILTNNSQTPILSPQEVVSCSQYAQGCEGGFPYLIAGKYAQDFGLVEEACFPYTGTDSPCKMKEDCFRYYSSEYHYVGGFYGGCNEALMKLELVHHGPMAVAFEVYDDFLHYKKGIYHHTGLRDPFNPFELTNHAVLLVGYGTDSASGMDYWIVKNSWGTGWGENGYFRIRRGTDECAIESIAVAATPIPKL

Consider `COC1CNC[C@@H](C(=O)N[C@H](C#N)Cc2ccc(-c3ccc4oc(=O)n(C)c4c3)cc2)OC1` (single isomer, unassigned) [INSM-203, (2S,6R*)—N-[(1S)-1-cyano-2-[4-(3-methyl-2-oxo-2,3-dihydro-1,3-benzoxazol-5-yl)phenyl]ethyl]-6-methoxy-1,4-oxazepane-2-carboxamide], for which the IC50 against DPP1 in HL-60 cells stood at 600 ± 10 pM; at mouse DPP1, 300 ± 100 pM.
The matching figures for `COC1CNC[C@@H](C(=O)N[C@H](C#N)Cc2ccc(-c3ccc4oc(=O)n(C)c4c3)cc2)OC1` (mixture of isomers) [INSM-202, (6-rac)-(2S)—N-[(1S)-1-cyano-2-[4-(3-methyl-2-oxo-2,3-dihydro-1,3-benzoxazol-5-yl)phenyl]ethyl]-6-methoxy-1,4-oxazepane-2-carboxamide]: 1100 ± 200 pM and 700 ± 200 pM.
The matching figures for `Cn1c(=O)oc2ccc(-c3ccc(C[C@@H](C#N)NC(=O)[C@@H]4CNC[C@H](O)CO4)cc3)cc21` (single isomer, unassigned) [INSM-201, (2S,6S*)—N-[(1S)-1-cyano-2-[4-(3-methyl-2-oxo-2,3-dihydro-1,3-benzoxazol-5-yl)phenyl]ethyl]-6-hydroxy-1,4-oxazepane-2-carboxamide]: 13400 ± 4100 pM and 2300 ± 400 pM.
